Key:
[1] = test system: LDLR level in HepG2 cells; test: Effect on the LDLR level in HepG2 cells (ELISA); type: cell-based, human; design: concentration or dose not given beside the values; conditions: 48 hours incubation, LDLR ELISA of lysate
Description: To detect the effect of the compounds on the LDLR protein level.
Envision (PE-Cisbio: 2105-0020), centrifuge (Eppendorf: 5810R), water purifier (THERMO: Pacific T II+Micropure), plate washer (Thermo: […] VERSA), and microplate shaker (Thermo: 88882006)
• 1) HepG2 cell strain was cultured in the complete culture medium at 37° C., 5% CO2 to 70-90% confluence. • 2) The cells were digested and resuspended in the experimental culture medium, inoculation was performed at 25,000 cells/well/200 μL in a 96-well cell culture plate, and the cells were cultured at 37° C., 5% CO2 for 20-24 hours. • 3) The culture medium was removed from the cell culture plate, and the cell culture plate was washed once by adding 200 μl of the experimental culture medium to each well. • 4) Preparation of positive control compound and compound to be tested: the positive control compound and the compound to be tested were diluted on the compound plate. • 5) The diluted compound was added to the cell culture plate at 250 μL per well and incubated at 37° C. and 5% CO2 for 48 hours. • 6) The cell culture medium was removed, the cells were washed with PBS, and 50 μL of the cell lysis buffer and the protein inhibitor were added. • 7) After centrifugation, the lysate was removed and the sample was stored for later use. • 8) Preparation of standard curve: corresponding volumes of Dilution buffer were successively added to respective standard tubes, and the standard was diluted in series by taking the corresponding volume from the original tube or the last concentration tube. • 9) Preparation of washing liquid: 10× Wash buffer was diluted into 1× with Milli-Q for later use. • 10) According to the standard curve wells and sample wells set according to a plate map, 80 μL/well of the corresponding standards and samples were added to the wells, with 2 replicate wells. A well in which no standard was added was used as a background value well. A self-adhesive seal was applied, the plate was placed on a plate shaker at room temperature, gently shaken, uniformly mixed, and incubated for 2 hours. • 11) The plate was placed on the plate washer, the washing liquid was set to 350 μL per well, and the plate was washed 4 times repeatedly. • 12) 200 μL of Human LDLR conjugate was added, a self-adhesive seal was applied, and the plate was placed on the plate shaker, well mixed uniformly, and incubated for 2 hours. • 13) The plate was placed on the plate washer, the washing liquid was set to 350 μL per well, and the plate was washed 4 times repeatedly. • 14) 200 μL/well of Substrate solution was added, and the plate was placed in the dark, applied with a self-adhesive seal, placed on the plate shaker, well mixed uniformly, and incubated for 20 minutes. • 15) 50 μL/well of Stop solution was added and mixed uniformly over 20 min. • 16) The optical density (OD) value in each well was measured in sequence at a wavelength of 450 nm by the microplate reader.
After the OD values were read by the microplate reader, the OD value of the 0-concentration standard in the standard group was subtracted from the OD values of the standards, control group, and samples to obtain the actual OD values for these wells. A standard curve was plotted with Graphpad and the concentration of the sample was calculated. If the dilution was performed during the sample detection, the calculated sample concentration was necessarily multiplied by the corresponding dilution ratio in the final calculation, which was the actual concentration of the sample. Concentration increase %=(actual concentration in control-actual concentration in sample)/actual concentration in control*100.

[2] = test system: hyperlipidemia animal model of B6-hPCSK9 transgenic mice; test: In vivo pharmacodynamics in hyperlipidemia animal model of B6-hPCSK9 transgenic mice; design: species or system B6-hPCSK9 transgenic C57 mice; conditions: PO administration, 10 mpk, Day 14, high-fat feed
Description: The compounds of the present disclosure were evaluated for in vivo pharmacodynamics in a hyperlipidemia animal model of B6-hPCSK9 transgenic mice.
B6-hPCSK9 transgenic C57 mice, 6-8 weeks old, male, purchased from Jiangsu GemPharmatech Co., Ltd.
After delivery to a barrier system, the animals were given one week for acclimatization and began to feed on the high-fat feed. The body weight and feed weight were weighed once a week, and the body weight and food intake thereof were recorded.
a. The animals were grouped by a random grouping method.
c. According to the grouping results, administration with the test drug was started (mode of administration: oral administration; administration volume: 10 mL/kg; frequency of administration: once/day or single administration; administration cycle: 21 days; vehicle: 10% Solutol HS 15/90% Saline).
d. After the test drug was administered, the body weight and feed weight were weighed twice a week and blood was taken once a week.
e. The data was processed with software such as Excel. […] PCSK9 in plasma was detected by ELISA.

Row | SMILES | LDLR expression level [1] | LDL-C change, Day 14 [2]
1 | O=C1c2ncccc2CN1c1ccc(N[C@H]2CC[C@H](Nc3ncc(C(F)(F)F)nn3)C2)nc1 [Example 144] | 117% | −30.39%
2 | Cc1cc2c(cn1)CN(c1ccc(N[C@H]3CC[C@H](Nc4ncc(C(F)(F)F)nn4)C3)nc1)C2=O [Example 148, 6-Methyl-2-(6-(((1S,3S)-3-((6-(trifluoromethyl)-1,2,4-triazin-3-yl)amino)cyclopentyl)amino)pyridin-3-yl)-2,3-dihydro-1H-pyrrolo[3,4-c]pyridin-1-one] | 121% | −24.61%
3 | O=C1c2c(cccc2C(F)(F)F)CN1c1ccc(N[C@H]2CC[C@H](Nc3ncc(C(F)(F)F)nn3)C2)nc1 [Example 157, 7-(Trifluoromethyl)-2-(6-(((1S,3S)-3-((6-(trifluoromethyl)-1,2,4-triazin-3-yl)amino)cyclopentyl)amino)pyridin-3-yl) isoindolin-1-one] | 129% | −28.99%

Reference: US20250326722A1 (SHANGHAI HANSOH BIOMEDICAL CO., LTD., priority 2022, published 2025)
